Results: patent publication US20040166099A1, “Molecules preferentially associated with effector T cells and methods of their use” (TolerRx, Inc., priority 2002, published 2004)
Entries after “also recorded” stand apart in the source; their conditions may differ.

What was measured:
Format in all cases: cell-based, human
Th1 cells = assay: Proliferation (3H-thymidine incorporation) of differentiated Th1 cells stimulated with CD3 and CD28
From the text: (§1) FIG. 4 depicts inhibition of proliferation of Th1 and Th2 cells, but not regulatory T cells, by Rottlerin, a commercially available inhibitor of PKC enzymes. Differentiated cells were stimulated with CD3 and CD28 in the presence of absence of the PKC inhibitor Rottlerin. Incorporation of ^3H-thymidine was used to monitor cell proliferation. Proliferation of each cell type is normalized to the proliferation observed in the absence of inhibitor.
(§2) Differentiated cell lines were produced from cells prepared from human cord blood or peripheral blood CD4+CD45RA+naïve T cells by a variety of methods, including flow cytometry and magnetic bead separations. Purity of the starting populations was >95%. Cells were then stimulated by CD3 and CD28 antibodies in RPMI 1640 with 10% FCS and 1% Human AB serum with defined mixtures of cytokines and neutralizing antibodies to cytokines to produce the differentiated cell types. Th1 cells were produced by culture with IL12 (62 U/ml) and anti-IL4 (0.2 ug/ml); Th2 cells were produced by culture in IL4(145 U/ml) and anti-IL12 (10 ug/ml) and anti-IFNγ (10 ug/ml); and regulatory T cells were produced by culture in TGFβ (32 U/ml), IL9 (42 U/ml), anti-IL4 (10 ug/ml) and anti-IL12 (10 ug/ml) and anti-IFNγ(10 ug/ml). (Note: anti-IL12 was not used in all experiments). All cultures were supplemented with IL2 (65 U/ml) and IL15 (4500 U/ml). Cells were split into larger culture dishes as warranted by cell division. At the conclusion of one round of cell differentiation (7-12 days), cells were harvested for preparation of total RNA for use in the gene chip experiments.
(§3) Differentiated cells, prepared as above, were re-stimulated using CD3 and CD28 in the presence of a range of concentrations of the commercial inhibitor Rottlerin.
(§4) Three days after initiation of the cultures, three replicate tissue culture wells for each condition for each cell type were fed with media containing ^3H-thymidine to monitor cell division. Wells were harvested 18 hr later and incorporated ^3H was measured by scintillation counting.

Th2 cells = assay: Proliferation (3H-thymidine incorporation) of differentiated Th2 cells stimulated with CD3 and CD28
From the text: as §1, §2, §3, §4

[1] = test system: regulatory T cells (TGFβ-derived Treg cells); assay: Proliferation (3H-thymidine incorporation) of differentiated regulatory T cells stimulated with CD3 and CD28
From the text: as §1
Differentiated cell lines were produced from cells prepared from human cord blood or peripheral blood CD4+CD45RA+naïve T cells by a variety of methods, including flow cytometry and magnetic bead separations. Purity of the starting populations was >95%. Cells were then stimulated by CD3 and CD28 antibodies in RPMI 1640 with 10% FCS and 1% Human AB serum with defined mixtures of cytokines and neutralizing antibodies to cytokines to produce the differentiated cell types. […]
as §4

[2] = FIG. 5 legend, representative data
[3] = wells coated with CD3 and CD28, 3H-thymidine fed at day 3, harvested 18 hr later, increasing concentrations of inhibitor, FIG. 5

Compound	inhibition of cell division / proliferation of Th1 cells (Th1 cells; Th1 cells re-stimulated using CD3 and CD28, 5 uM, three of three experiments, FIG. 4)	inhibition of cell division / proliferation of Th2 cells (Th2 cells; Th2 cells re-stimulated using CD3 and CD28, 5 uM, three of three experiments, FIG. 4)	inhibition of proliferation of regulatory T cells ([1]; regulatory T cells re-stimulated using CD3 and CD28, range of concentrations, three of three experiments, FIG. 4)	inhibition of proliferation of Th1 cells (in words) (Th1 cells; [2])	proliferation of Th1 cells relative to control (Th1 cells; [3])	inhibition of proliferation of Th2 cells (in words) (Th2 cells; [2])	proliferation of Th2 cells relative to control (Th2 cells; [3])	inhibition of proliferation of TGFβ-derived Treg cells (in words) [1, 2]
CC(=O)c1c(O)c(C)c(O)c(Cc2c(O)c3c(c(C(=O)/C=C/c4ccccc4)c2O)OC(C)(C)C=C3)c1O [Rottlerin]	inhibition; also recorded: inhibited	inhibition; also recorded: inhibited	not and did not inhibit					
NH2-RQIKIWFQNRRMKWKKMDQNMFRNFSFNMP-COOH (H-RQIKIWFQNRRMKWKKMDQNMFRNFSFNMP-OH) [antennapedia-PKCθ peptide]				selectively inhibits	16 % of control levels	selectively inhibits	16 % of control levels	not
